Consider nine molecules from paper PMC3344910 (Bioorganic & medicinal chemistry, 2012).

Molecules are shown by their SMILES. Where two headings read alike, the source gives them in different places. Bounds are passed on as bounds.

Assay [1] has as its target T1, KOP receptors (Homo sapiens, UniProt P41145). Briefly: biochemical. The assay is classed as biochemical.
Assay [2] addresses T1, KOP receptors. The conditions noted are these: compared to 2 (U50,488) ref 32; cited from earlier work.
In assay [3] the target is T1, KOP receptors. To be noted: compared to 1 ref 48; cited from earlier work.
A further assay concerns the target human MOP receptor (Homo sapiens, UniProt P35372). Briefly: biochemical. The assay is classed as binding.
Another assay concerns the target human DOP receptor (Homo sapiens, UniProt P41143). Description: biochemical. The class given is binding.
Assay [4] concerns the target T1, KOP receptors. Description: biochemical. The class given is binding.
Assay [5] has as its target T1, KOP receptors. The conditions noted are these: read-out: KOP Ki, previous report; cited from earlier work.
Assay [6] concerns the target T1, KOP receptors. The class given is cell-based.

T1 sequence (P41145 whole entry): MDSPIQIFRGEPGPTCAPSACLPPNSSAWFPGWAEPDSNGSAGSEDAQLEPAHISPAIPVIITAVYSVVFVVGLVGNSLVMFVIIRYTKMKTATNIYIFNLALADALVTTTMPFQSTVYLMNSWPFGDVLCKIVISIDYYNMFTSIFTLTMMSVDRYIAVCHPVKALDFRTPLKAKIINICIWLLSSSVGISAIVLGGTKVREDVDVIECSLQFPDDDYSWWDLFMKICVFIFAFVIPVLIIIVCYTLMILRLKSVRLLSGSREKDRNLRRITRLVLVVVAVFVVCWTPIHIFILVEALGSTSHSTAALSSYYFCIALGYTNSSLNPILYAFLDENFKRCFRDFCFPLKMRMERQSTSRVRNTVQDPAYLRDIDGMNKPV
Chain of human DOP receptor (P41143 whole entry): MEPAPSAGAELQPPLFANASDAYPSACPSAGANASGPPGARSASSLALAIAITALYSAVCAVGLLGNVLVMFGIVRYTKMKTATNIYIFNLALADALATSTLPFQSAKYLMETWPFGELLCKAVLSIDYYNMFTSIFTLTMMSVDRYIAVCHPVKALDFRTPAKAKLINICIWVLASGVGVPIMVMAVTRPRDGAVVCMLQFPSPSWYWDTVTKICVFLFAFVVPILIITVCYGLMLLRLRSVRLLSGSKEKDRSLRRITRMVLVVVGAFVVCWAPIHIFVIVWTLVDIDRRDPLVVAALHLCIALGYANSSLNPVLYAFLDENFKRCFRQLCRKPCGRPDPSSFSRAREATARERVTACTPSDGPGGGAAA
Chain of human MOP receptor (P35372 whole entry): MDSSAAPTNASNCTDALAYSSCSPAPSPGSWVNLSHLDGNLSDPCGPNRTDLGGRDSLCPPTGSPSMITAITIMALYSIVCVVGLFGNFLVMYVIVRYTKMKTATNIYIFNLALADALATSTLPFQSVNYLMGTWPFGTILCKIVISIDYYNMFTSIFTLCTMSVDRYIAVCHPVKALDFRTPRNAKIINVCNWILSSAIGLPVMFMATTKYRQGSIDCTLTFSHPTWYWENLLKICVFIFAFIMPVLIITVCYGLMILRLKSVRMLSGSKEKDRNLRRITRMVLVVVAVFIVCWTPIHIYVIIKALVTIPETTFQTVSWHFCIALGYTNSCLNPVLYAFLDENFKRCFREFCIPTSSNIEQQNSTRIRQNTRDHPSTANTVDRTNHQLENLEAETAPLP

Regarding `COC(=O)[C@@H]1C[C@H](OC(C)=O)C(=O)[C@H]2[C@@]1(C)CC[C@H]1C(=O)O[C@@H](c3ccoc3)C[C@]21C` [Compound 3, (2R,4aR,6aR,7R,9S,10aS,10bR)-methyl 9-acetoxy-2-(furan-3-yl)-6a,10b-dimethyl-4,10-dioxododecahydro-1H-benzo[f]isochromene-7-carboxylate], the “less potent than 1 in the [35S]GTP-γ-S assay” value on KOP receptors [1] worked out at 18 fold. Moreover, the “Emax, [35S]GTP-γ-S assay, previous report” value at KOP receptors [2] is on record as 73 ± 6. On KOP receptors [3], the “Emax, β-arrestin 2 DiscoveRx assay” value is listed as 126 ± 10.

The term Ki denotes the equilibrium dissociation constant of an inhibitor or competing ligand from its target. For orientation: EC50 means the midpoint of the concentration-response curve. Low readings indicate a more potent agent, high ones a less potent agent. By Emax is commonly meant the maximal effect, on the per cent scale that the assay sets. As for `COC(=O)[C@@H]1C[C@H](OC(C)=O)C(=O)[C@H]2[C@@]1(C)CC[C@H]1C(=O)OC(/C=C\c3ccoc3)C[C@]21C` (stereo partly drawn) [Compound 9, (4aR,6aR,7R,9S,10aS,10bR)-methyl 9-acetoxy-2-((Z)-2-(furan-3-yl)vinyl)-6a,10b-dimethyl-4,10-dioxododecahydro-1H-benzo[f]isochromene-7-carboxylate], the Ki at human MOP receptor was 2.6 µM; at human DOP receptor it was over 10 µM; on KOP receptors [4], 0.03 ± 0.004 µM. At human DOP receptor (read-out: DOP percent of control produced by the 10 μM test drug), the remaining activity at 10 µM was determined as 94%. Further, on KOP receptors [4], the “higher affinity for the KOP receptor compared to trans analogue 8” value was about 40 fold. It took 1.37 µM to reach a half-maximal effect on KOP receptors [1] (EC50). The Emax at KOP receptors [1] (read-out: KOP Emax ± SD, stimulation of [35S]GTP-γ-S binding) came out at 105 ± 4%.

Molecule `COC(=O)[C@@H]1C[C@H](OC(C)=O)C(=O)[C@H]2[C@@]1(C)CC[C@H]1C(=O)O[C@H](C(=O)c3ccccc3)C[C@]21C` [Compound 12, (2S,4aR,6aR,7R,9S,10aS,10bR)-methyl 9-acetoxy-2-benzoyl-6a,10b-dimethyl-4,10-dioxododecahydro-1H-benzo[f]isochromene-7-carboxylate] returned an EC50 on KOP receptors [1] of 1.37 ± 0.18 µM.

In the case of `COC(=O)[C@@H]1C[C@H](OC(C)=O)C(=O)[C@H]2[C@@]1(C)CC[C@H]1C(=O)O[C@H](C(=O)c3cccc(C(N)=O)c3)C[C@]21C` [Compound 19, (2S,4aR,6aR,7R,9S,10aS,10bR)-methyl 9-acetoxy-2-(3-carbamoylbenzoyl)-6a,10b-dimethyl-4,10-dioxododecahydro-1H-benzo[f]isochromene-7-carboxylate], at KOP receptors [4], the “increased KOP affinity compared to 17” value was “approximately 3 fold”. The “less potent than 1 in the [35S]GTP-γ-S assay” value on KOP receptors [1] amounted to 18 fold.

In the case of `COC(=O)[C@@H]1C[C@H](OC(C)=O)C(=O)[C@H]2[C@@]1(C)CC[C@H]1C(=O)O[C@H](C(=O)c3cccc(C#N)c3)C[C@]21C` [Compound 20, (2S,4aR,6aR,7R,9S,10aS,10bR)-methyl 9-acetoxy-2-(3-cyanobenzoyl)-6a,10b-dimethyl-4,10-dioxododecahydro-1H-benzo[f]isochromene-7-carboxylate], the “decreased KOP affinity compared to 19” value at KOP receptors [4] is 6 fold.

Consider `COC(=O)[C@@H]1C[C@H](OC(C)=O)C(=O)[C@H]2[C@@]1(C)CC[C@H]1C(=O)O[C@H](C(=O)c3ccco3)C[C@]21C` [Compound 23, (2S,4aR,6aR,7R,9S,10aS,10bR)-methyl 9-acetoxy-2-(furan-2-carbonyl)-6a,10b-dimethyl-4,10-dioxododecahydro-1H-benzo[f]isochromene-7-carboxylate], for which the Ki on KOP receptors [5] is over 1 µM.

For `COC(=O)[C@@H]1C[C@H](OC(C)=O)C(=O)[C@H]2[C@@]1(C)CC[C@H]1C(=O)O[C@H](C(=O)c3ccsc3)C[C@]21C` [Compound 26, (2S,4aR,6aR,7R,9S,10aS,10bR)-methyl 9-acetoxy-6a,10b-dimethyl-4,10-dioxo-2-(thiophene-3-carbonyl)dodecahydro-1H-benzo[f]isochromene-7-carboxylate], the “more potent than 25 as an agonist in the [35S]GTP-γ-S assay” value on KOP receptors [1] was “approximately 3 fold”.

For `C/C=C\C(=O)[C@@H]1C[C@]2(C)[C@H]3C(=O)[C@@H](OC(C)=O)C[C@@H](C(=O)OC)[C@]3(C)CC[C@H]2C(=O)O1` [Compound 30, (2S,4aR,6aR,7R,9S,10aS,10bR)-methyl 9-acetoxy-2-((Z)-but-2-enoyl)-6a,10b-dimethyl-4,10-dioxododecahydro-1H-benzo[f]isochromene-7-carboxylate], the “decrease in KOP affinity compared to 12” value on KOP receptors [4] is reported as 4 fold.

Consider `COC(=O)[C@@H]1C[C@H](OC(C)=O)C(=O)[C@H]2[C@@]1(C)CC[C@H]1C(=O)O[C@H](c3ccco3)C[C@]21C` [Compound 31, (2S,4aR,6aR,7R,9S,10aS,10bR)-methyl 9-acetoxy-2-(furan-2-yl)-6a,10b-dimethyl-4,10-di-oxododecahydro-1H-benzo[f]isochromene-7-carboxylate], for which, on KOP receptors [4], the Ki was determined as 0.0087 ± 0.0004 µM and the “increase in affinity at KOP receptors compared to 23” value was 9 fold. Besides, the “less potent than 1 in the [35S]GTP-γ-S assay” value on KOP receptors [1] is reported as 3 fold. The “decrease in potency compared to 1, Ca2+ mobilization” value on KOP receptors [6] is on record as 2 fold.
